# Assay results: patent publication US6166067A, “Inhibitors of cholesterol-biosynthesis for reducing the cholesterol content of poultry eggs” (priority 1998, dated 2000)
# Structures can show the parent of a compound that is named as a salt. Where two headings read alike, the source gives them in different places.
# Columns and labels:
# [1] = test system: cholesterol content of poultry eggs; conditions: cited from earlier work; for reduction of cholesterol content of poultry eggs: literature (Elkin et al.)
# [2] = test system: cholesterol synthesis in macrophages; conditions: Fuhrmann et al. 1997; cited from earlier work
# cholesterol in yolk = test: Cholesterol in egg yolk, laying-hen feeding trial (Example 2); format: in vivo, laying hens; conditions: for Cholesterol, yolk: control 10.23; for reduction in yolk cholesterol: significant; for trend in yolk cholesterol content: Example 2
# From the text: (§1) For the cholesterol determination, the cholesterol esters were cleaved to cholesterol and fatty acid by the action of cholesterol esterase. Free cholesterol is converted by atmospheric oxygen with the involvement of cholesterol oxidase into Δ^4 -cholestenone and hydrogen peroxide. The resulting hydrogen peroxide forms with 4-aminophenazone and phenol through the catalytic action of peroxidase a red dye whose intensity of color is directly proportional to the cholesterol concentration and can be measured at 500 to 550 nm.
# (§2) Another feeding experiment was carried out in analogy to Example 1. In this case the intention was to test not only α- and δ-tocotrienol but also a tocotrienol precursor (4-oxo-γ-tocotrienol) and other terpenoids such as farnesyl acetate, perillyl alcohol, linalool and β-ionone, in laying hens.
# (§3) The trial protocol corresponds to that in Example 1 but with the following amendments:
# (§4) The number of birds comprised 8 hens per treatment.
# (§5) Triglyceride and cholesterol were determined in 4 independent yolk pools(each from 6 eggs) and plasma.
# plasma cholesterol = test: Cholesterol in plasma, laying-hen feeding trial (Example 2); format: in vivo, laying hens; conditions: control 125.3
# From the text: as §1, §2, §3, §4
# (§6) 4 birds in each case from the control and the high dosages were sacrificed at the end of the trial. After taking blood to obtain plasma, the birds were completely exsanguinated. The liver was then removed and deep frozen until analyzed.
# as §5
# triglycerides in yolk = test: Triglycerides in egg yolk, laying-hen feeding trial (Example 2); format: in vivo, laying hens; conditions: control 170.4
# Method: (§7) The triglycerides are determined enzymatically via their glycerol content. The triglycerides are cleaved enzymatically by the enzymes lipase and esterase. The resulting glycerol is phosphorylated by ATP to glycerol 3-phosphate in the reaction catalyzed by glycerol kinase GK.
# as §2, §3, §4, §5
# plasma triglyceride = test: Triglycerides in plasma, laying-hen feeding trial (Example 2); format: in vivo, laying hens; conditions: for Triglycerides, plasma: control 2496; for reduction of plasma triglyceride level: Example 2, maximum
# Method: as §7, §2, §3, §4, §6, §5
# [3] = test system: total cholesterol in the yolk; test: Total cholesterol in egg yolk, laying-hen feeding trial (Example 1); format: in vivo, laying hens (Lohmann Selected Leghorn); conditions: 4 weeks
# Method: (§8) At the start of the trial, the laying hens (Lohmann Selected Leghorn) had been laying for 28 weeks. One treatment group consisted of 10 hens. The birds were initially fed with the various active ingredients for 4 weeks. The eggs were then collected for the analyses. 3 independent yolk pools were formed from 6 eggs in each case and were deep-frozen until analyzed. Total cholesterol and triglycerides in the yolk were analyzed by enzymatic methods. The analyses were carried out as stated in the handbook "Veterinarmedizinische Laboruntersuchungen fur die Diagnose und Verlaufskontrolle" (1985), 3rd edition, published by Boehringer Mannheim GmbH, Mannheim.
# as §1
# (§9) The data were subjected to analysis of variance, and differences between means were ranged by the Duncan test.
# [4] = test system: triglycerides in the yolk; test: Triglycerides in egg yolk, laying-hen feeding trial (Example 1); format: in vivo, laying hens (Lohmann Selected Leghorn); conditions: 4 weeks
# Method: as §8, §7
# glycerol+ATP.revreaction.glycerol 3-phosphate+ADP
# The resulting ADP is converted by pyruvate kinase (PK) with phosphoenolpyruvate (PEP) back into ATP, with formation of pyruvate. [drawing 6] Pyruvate is hydrogenated to lactate by lactate dehydrogenase (LDH) with NADH, the NADH being oxidized to NAD. [drawing 7]
# The amount of NADH consumed during the reaction is equivalent to the amount of glycerol. NADH is the measured variable and can easily be determined from its absorption at Hg 366 nm, Hg 334 nm or 340 nm.
# as §9
# [5] = Tocopherol and tocotrienol contents in yolk by HPLC (Example 1); format: in vivo, laying hens (Lohmann Selected Leghorn); conditions: for α-Tocopherol content in yolk / α-Tocotrienol content in yolk / γ-Tocopherol content in yolk / δ-Tocopherol content in yolk / δ-Tocotrienol content in yolk: after hydrolysis
# Method: as §8
# Tocopherols and tocotrienols in the yolk pools were determined by HPLC. To do this, the sample is hydrolyzed in aqueous alcoholic medium and extracted several times with diethyl ether. Quantification takes place by comparison with external standards.
# Stationary phase: Spherisorb CN 5 μm, 250×4 mm
# Mobile phase: n-Hexane with 0.25% i-propanol
# Fluorescence detection: 292 nm (extinction) 326 nm (emission)
# [6] = test system: β-hydroxy-β-methyl-glutaryl (HMG)-CoA reductase; conditions: cited from earlier work
# HMG-CoA reductase = conditions: cell culture and rats and mice; cited from earlier work
# tumors = conditions: cell culture and rats and mice; cited from earlier work
# [7] = cited from earlier work
# [8] = 500 mg/kg feed, significant, complete yolk
# [9] = both dosages (100 and 1000 mg/kg feed)
molecule,measurement,setting,value
CCC(C)(C)C(=O)O[C@H]1C[C@@H](C)C=C2C=C[C@H](C)[C@H](CC[C@@H]3C[C@@H](O)CC(=O)O3)[C@H]21 [simvastatin],effect on the cholesterol content in eggs,[1]; literature (Huggett et al.; Beyer and Jensen),no effect
CC(C)=CCC/C(C)=C/C=C/C(C)=C/C=C/C(C)=C/C=C/C=C(C)/C=C/C=C(C)/C=C/C=C(\C)CCC=C(C)C [lycopene],inhibition of cholesterol synthesis in macrophages,[2],inhibit cholesterol synthesis in macrophages
"CC(C)=CCC/C(C)=C/CC/C(C)=C/CCC1(C)CC(=O)c2cc(O)c(C)c(C)c2O1 (centres unmarked) [4-Oxo-γ-tocotrienol, 4-oxo-γ-tocotrienol]","Cholesterol, yolk",cholesterol in yolk; 50 mg/kg feed,9.78 mg/g
same,"Cholesterol, yolk",cholesterol in yolk; 500 mg/kg feed,8.55 mg/g
same,reduction in yolk cholesterol,cholesterol in yolk; high dosage (500 mg/kg feed),up to 18%
same,"Cholesterol, plasma",plasma cholesterol; 500 mg/kg feed,166.8 mg/dL
same,"Triglycerides, yolk",triglycerides in yolk; 50 mg/kg feed,188.3 mg/g
same,"Triglycerides, yolk",triglycerides in yolk; 500 mg/kg feed,172.0 mg/g
same,"Triglycerides, plasma",plasma triglyceride; 500 mg/kg feed,4336 mg/dL
CC(=O)Oc1cc2c(c(C)c1C)OC(C)(CC/C=C(\C)CC/C=C(\C)CCC=C(C)C)CC2 (racemic) [γ-tocotrienol acetate],reduction in cholesterol in the yolk,[3]; [8],15%
same,effect on cholesterol in the yolk,"[3]; low dosage, 20 mg/kg feed",no effect
same,reduction in triglycerides in the yolk,[4]; [8],15%
same,effect on triglycerides in the yolk,"[4]; low dosage, 20 mg/kg feed",no effect
same,α-Tocopherol content in yolk,[5]; 20 mg/kg feed,545 μg/yolk
same,α-Tocotrienol content in yolk,[5]; 20 mg/kg feed,0 μg/yolk
same,γ-Tocopherol content in yolk,[5]; 20 mg/kg feed,393 μg/yolk
same,δ-Tocopherol content in yolk,[5]; 20 mg/kg feed,57 μg/yolk
same,δ-Tocotrienol content in yolk,[5]; 20 mg/kg feed,0 μg/yolk
same,α-Tocopherol content in yolk,[5]; 500 mg/kg feed,433 μg/yolk
same,α-Tocotrienol content in yolk,[5]; 500 mg/kg feed,0 μg/yolk
same,γ-Tocopherol content in yolk,[5]; 500 mg/kg feed,425 μg/yolk
same,δ-Tocopherol content in yolk,[5]; 500 mg/kg feed,59 μg/yolk
same,δ-Tocotrienol content in yolk,[5]; 500 mg/kg feed,366 μg/yolk
CC(C)=CCC/C(C)=C/CC/C(C)=C/CCC1(C)CCc2cc(O)c(C)c(C)c2O1 (centres unmarked) [γ-tocotrienol],accumulation of γ-tocotrienol in the yolk,[5]; fed as γ-tocotrienol acetate,scarcely any accumulation
same,γ-tocotrienol detected in the yolk,"[5]; high dosage (500 mg/kg feed, as acetate)",366 µg
same,relative effect versus α-tocotrienol,[6]; HepG2 cell cultures,about 30 times
nicotinate [reference compound],effect of ester form by comparison with the alcohol and acetate forms,"[6]; U.S. Pat. No. 5,217,992",most pronounced
"CC(=O)OC/C=C(\C)CC/C=C(\C)CCC=C(C)C [Farnesyl acetate, farnesyl acetate]","Cholesterol, yolk",cholesterol in yolk; 750 mg/kg feed,10.15 mg/g
same,"Cholesterol, yolk",cholesterol in yolk; 7500 mg/kg feed,10.23 mg/g
same,"Cholesterol, plasma",plasma cholesterol; 7500 mg/kg feed,129.3 mg/dL
same,"Triglycerides, yolk",triglycerides in yolk; 750 mg/kg feed,177.1 mg/g
same,"Triglycerides, yolk",triglycerides in yolk; 7500 mg/kg feed,175.9 mg/g
same,"Triglycerides, plasma",plasma triglyceride; 7500 mg/kg feed,1929 mg/dL
same,reduction of plasma triglyceride level,plasma triglyceride,≤ 25%
"C=CC(C)(O)CCC=C(C)C (centres unmarked) [Linalool, linalool]","Cholesterol, yolk",cholesterol in yolk; 100 mg/kg feed,8.40 mg/g
same,"Cholesterol, yolk",cholesterol in yolk; 1000 mg/kg feed,8.97 mg/g
same,reduction in yolk cholesterol,cholesterol in yolk; [9],up to 18%
same,"Cholesterol, plasma",plasma cholesterol; 1000 mg/kg feed,211.6 mg/dL
same,"Triglycerides, yolk",triglycerides in yolk; 100 mg/kg feed,187.5 mg/g
same,"Triglycerides, yolk",triglycerides in yolk; 1000 mg/kg feed,163.1 mg/g
same,"Triglycerides, plasma",plasma triglyceride; 1000 mg/kg feed,1907 mg/dL
same,inhibition of HMG-CoA reductase,HMG-CoA reductase,inhibit HMG-CoA reductase
same,inhibition of tumors,tumors,inhibit tumors
"CC(C)=CCC/C(C)=C/CO [geraniol, reference compound]",inhibition of HMG-CoA reductase,HMG-CoA reductase,inhibit HMG-CoA reductase
same,inhibition of tumors,tumors,inhibit tumors
C=C(C)[C@H]1CC=C(C)CC1 [d-limonene],inhibition of HMG-CoA reductase,HMG-CoA reductase,inhibit HMG-CoA reductase
same,inhibition of tumors,tumors,inhibit tumors
CC1=C(/C=C/C(C)=C/C=C/C(C)=C/C=C/C=C(C)/C=C/C=C(C)/C=C/C2=C(C)CCCC2(C)C)C(C)(C)CCC1 [β-carotene],inhibition of cholesterol synthesis in macrophages,[2],inhibit cholesterol synthesis in macrophages
CC[C@H](C)C(=O)O[C@H]1C[C@@H](C)C=C2C=C[C@H](C)[C@H](CC[C@@H]3C[C@@H](O)CC(=O)O3)[C@H]21 [lovastatin],reduction of cholesterol content of poultry eggs,[1],15%
same,"influence on poultry performance parameters, such as the egg output",[7]; in vivo,without influencing
"C=C(C)C1CC=C(CO)CC1 (centres unmarked) [Perillyl alcohol, perillyl alcohol]","Cholesterol, yolk",cholesterol in yolk; 500 mg/kg feed,9.55 mg/g
same,"Cholesterol, yolk",cholesterol in yolk; 5000 mg/kg feed,9.53 mg/g
same,trend in yolk cholesterol content,cholesterol in yolk,trend toward reduced cholesterol contents in yolk
same,"Cholesterol, plasma",plasma cholesterol; 5000 mg/kg feed,165.3 mg/dL
same,"Triglycerides, yolk",triglycerides in yolk; 500 mg/kg feed,188.5 mg/g
same,"Triglycerides, yolk",triglycerides in yolk; 5000 mg/kg feed,174.4 mg/g
same,"Triglycerides, plasma",plasma triglyceride; 5000 mg/kg feed,2197 mg/dL
same,reduction of plasma triglyceride level,plasma triglyceride,≤ 25%
"CC(=O)/C=C/C1=C(C)CCCC1(C)C [β-Ionone, β-ionone]","Cholesterol, yolk",cholesterol in yolk; 100 mg/kg feed,9.03 mg/g
same,"Cholesterol, yolk",cholesterol in yolk; 1000 mg/kg feed,9.03 mg/g
same,reduction in yolk cholesterol,cholesterol in yolk; [9],up to 18%
same,"Cholesterol, plasma",plasma cholesterol; 1000 mg/kg feed,201.3 mg/dL
same,"Triglycerides, yolk",triglycerides in yolk; 100 mg/kg feed,190.7 mg/g
same,"Triglycerides, yolk",triglycerides in yolk; 1000 mg/kg feed,184.8 mg/g
same,"Triglycerides, plasma",plasma triglyceride; 1000 mg/kg feed,1954 mg/dL
same,reduction of plasma triglyceride level,plasma triglyceride,≤ 25%
same,inhibition of HMG-CoA reductase,HMG-CoA reductase,inhibit HMG-CoA reductase
same,inhibition of tumors,tumors,inhibit tumors
"CC(C)=CCC/C(C)=C/CC/C(C)=C/CCC1(C)CCc2cc(O)cc(C)c2O1 (centres unmarked) [δ-Tocotrienol, δ-tocotrienol]","Cholesterol, yolk",cholesterol in yolk; 50 mg/kg feed,9.25 mg/g
same,"Cholesterol, yolk",cholesterol in yolk; 500 mg/kg feed,9.23 mg/g
same,trend in yolk cholesterol content,cholesterol in yolk,trend toward reduced cholesterol contents in yolk
same,"Cholesterol, plasma",plasma cholesterol; 500 mg/kg feed,163.0 mg/dL
same,"Triglycerides, yolk",triglycerides in yolk; 50 mg/kg feed,185.2 mg/g
same,"Triglycerides, yolk",triglycerides in yolk; 500 mg/kg feed,163.9 mg/g
same,"Triglycerides, plasma",plasma triglyceride; 500 mg/kg feed,2985 mg/dL
"CC(C)c1c(Br)c(Br)c(-c2ccc(F)cc2)n1CC[C@@H](O)C[C@@H](O)CC(=O)O (relative stereo) [(±)-(R*,R*)-3,4-dibromo-β,δ-dihydroxy-2-(4-fluorophenyl)-5-(1-methylethyl)-1H-pyrrole-1-heptanoic acid, Na salt]",reduction of cholesterol content of poultry eggs,[1],30%
same,"influence on poultry performance parameters, such as the egg output",[7]; literature (Elkin et al.),without influencing
